Results on 1 compound are retold here after ChEMBL document CHEMBL5528039, “Discovery of a Macrocyclic Influenza Cap-Dependent Endonuclease Inhibitor” (J Med Chem, 2024).

Data set [1] in a line: Prodrug conversion in Beagle dog assessed as (7aS,16R)-2,3-difluoro-10-hydroxy-8-methyl-16-phenyl-6,7,7a,8-tetrahydro-16H-benzo[b]pyrido[1',2':1,6][1,2,4]triazino[2,3-e][1,5]oxazocine-9,11-dione half-life at 1 mg/kg, po measured after 24 hrs by LC-MS/MS analysis. It counts as ADME, organism-based, Canis lupus familiaris. Conditions: in vivo.
The nature of data set [2]: Prodrug conversion in cynomolgus monkey assessed as (7aS,16R)-2,3-difluoro-10-hydroxy-8-methyl-16-phenyl-6,7,7a,8-tetrahydro-16H-benzo[b]pyrido[1',2':1,6][1,2,4]triazino[2,3-e][1,5]oxazocine-9,11-dione half-life at 1 mg/kg, po measured after 24 hrs by LC-MS/MS analysis. It counts as ADME, organism-based, Macaca fascicularis. The conditions noted are these: in vivo.
Data set [3] is described as follows: Prodrug conversion in Beagle dog assessed as (7aS,16R)-2,3-difluoro-10-hydroxy-8-methyl-16-phenyl-6,7,7a,8-tetrahydro-16H-benzo[b]pyrido[1',2':1,6][1,2,4]triazino[2,3-e][1,5]oxazocine-9,11-dione Cmax at 1 mg/kg, po measured after 24 hrs by LC-MS/MS analysis. It counts as ADME, organism-based, Canis lupus familiaris. Conditions: in vivo.
Data set [4] has as its system Influenza A virus. Description: Antiviral activity against Influenza A virus A/PR/8/34 infected in BALB/c mouse assessed as reduction in viral load in lungs at 5 to 30 mg/kg, po pre-infected with virus for 48 hrs followed by twice daily compound administration starting from day 2 and measured 1 hrs after last dose on day 5 by crystal violet staining based analysis. The conditions noted are these: dose 5-30 mg/kg, time 73.0 hrs. It counts as functional, organism-based.

A short description of data set [5]: Prodrug conversion in Beagle dog assessed as (7aS,16R)-2,3-difluoro-10-hydroxy-8-methyl-16-phenyl-6,7,7a,8-tetrahydro-16H-benzo[b]pyrido[1',2':1,6][1,2,4]triazino[2,3-e][1,5]oxazocine-9,11-dione AUC (0 to last) at 1 mg/kg, po measured after 24 hrs by LC-MS/MS analysis. It counts as ADME, organism-based, Canis lupus familiaris. Conditions: in vivo.
Data set [6] can be described thus: Prodrug conversion in cynomolgus monkey assessed as (7aS,16R)-2,3-difluoro-10-hydroxy-8-methyl-16-phenyl-6,7,7a,8-tetrahydro-16H-benzo[b]pyrido[1',2':1,6][1,2,4]triazino[2,3-e][1,5]oxazocine-9,11-dione Cmax at 1 mg/kg, po measured after 24 hrs by LC-MS/MS analysis. Conditions: in vivo. It counts as ADME, organism-based, Macaca fascicularis.
Data set [7] can be described thus: Prodrug conversion in BALB/c mouse assessed as (7aS,16R)-2,3-difluoro-10-hydroxy-8-methyl-16-phenyl-6,7,7a,8-tetrahydro-16H-benzo[b]pyrido[1',2':1,6][1,2,4]triazino[2,3-e][1,5]oxazocine-9,11-dione AUC (0 to last) at 10 mg/kg, po measured after 24 hrs by LC-MS/MS analysis. It counts as ADME, organism-based. The conditions noted are these: in vivo.
Data set [8] relates to Influenza B virus. Nature of the data set: Antiviral activity against Influenza B virus B/Lee/40 infected in BALB/c mouse assessed as reduction in improvement in survival rate at 0.5 to 5 mg/kg, po pre-infected with virus for 24 hrs followed by twice daily compound administration from day 1 to 7 and measured on day 14. It counts as functional, organism-based. Conditions: dose 0.5-5 mg/kg, time 14.0 day.

The test system of data set [9] is Influenza B virus. Description: Antiviral activity against Influenza B virus B/Lee/40 infected in BALB/c mouse assessed as reduction in body weight loss at 0.5 to 5 mg/kg, po pre-infected with virus for 24 hrs followed by twice daily compound administration from day 1 to 7 and measured on day 14. It counts as functional, organism-based. The conditions noted are these: dose 0.5-5 mg/kg, time 14.0 day.

Data set [10] is described as follows: Prodrug conversion in BALB/c mouse assessed as (7aS,16R)-2,3-difluoro-10-hydroxy-8-methyl-16-phenyl-6,7,7a,8-tetrahydro-16H-benzo[b]pyrido[1',2':1,6][1,2,4]triazino[2,3-e][1,5]oxazocine-9,11-dione Cmax at 10 mg/kg, po measured after 24 hrs by LC-MS/MS analysis. The conditions noted are these: in vivo. It counts as ADME, organism-based.
Data set [11] can be described thus: Prodrug conversion in cynomolgus monkey assessed as (7aS,16R)-2,3-difluoro-10-hydroxy-8-methyl-16-phenyl-6,7,7a,8-tetrahydro-16H-benzo[b]pyrido[1',2':1,6][1,2,4]triazino[2,3-e][1,5]oxazocine-9,11-dione AUC (0 to last) at 1 mg/kg, po measured after 24 hrs by LC-MS/MS analysis. It counts as ADME, organism-based, Macaca fascicularis. The conditions noted are these: in vivo.

The nature of data set [12]: Prodrug conversion in BALB/c mouse assessed as (7aS,16R)-2,3-difluoro-10-hydroxy-8-methyl-16-phenyl-6,7,7a,8-tetrahydro-16H-benzo[b]pyrido[1',2':1,6][1,2,4]triazino[2,3-e][1,5]oxazocine-9,11-dione half-life at 10 mg/kg, po measured after 24 hrs by LC-MS/MS analysis. It counts as ADME, organism-based. Conditions: in vivo.
The nature of data set [13]: Prodrug conversion in BALB/c mouse infected with Influenza B virus B/Lee/40 assessed as (7aS,16R)-2,3-difluoro-10-hydroxy-8-methyl-16-phenyl-6,7,7a,8-tetrahydro-16H-benzo[b]pyrido[1',2':1,6][1,2,4]triazino[2,3-e][1,5]oxazocine-9,11-dione formation at 0.5 to 5 mg/kg, po pre-infected with virus for 24 hrs followed by twice daily compound administration from day 1 to 7 and measured on day 14 by LC-MS/MS analysis. It counts as ADME, organism-based. Conditions: in vivo, 336 h, dose 0.5-5 mg/kg, time 14 day.

Data set [14] is described as follows: Prodrug conversion in BALB/c mouse infected with Influenza B virus B/Lee/40 assessed as (7aS,16R)-2,3-difluoro-10-hydroxy-8-methyl-16-phenyl-6,7,7a,8-tetrahydro-16H-benzo[b]pyrido[1',2':1,6][1,2,4]triazino[2,3-e][1,5]oxazocine-9,11-dione formation by measuring Ctau at 5 mg/kg, po pre-infected with virus for 24 hrs followed by twice daily compound administration from day 1 to 7 and measured on day 14 by LC-MS/MS analysis. It counts as ADME, organism-based. The conditions noted are these: in vivo, 336 h, time 14 day.

Data set [15] deals with Influenza A virus. Nature of the data set: Antiviral activity against Influenza A virus A/PR/8/34 infected in BALB/c mouse assessed as reduction in body weight loss at 5 to 30 mg/kg, po pre-infected with virus for 48 hrs followed by twice daily compound administration starting from day 2 and measured on day 5. It counts as functional, organism-based. The conditions noted are these: dose 5-30 mg/kg, time 72.0 hrs.

Activity calls are given as the source filed them. No cut-off for these calls is given here.

Regarding `COC(=O)OCOc1c2n(ccc1=O)N1[C@H](c3ccccc3)c3cc(F)c(F)cc3OCC[C@H]1N(C)C2=O`, the t1/2 in data set [1] turned out to be 4.4 h; in data set [2] it was 3.6 h; in [12], 1.3 h. Also, the Cmax in [3] amounted to 171 nM; in [6], 163 nM; in data set [10] it was 309 nM. In addition, the outcome with Influenza A virus [4], in the data set with Influenza B virus [8], with Influenza B virus [9] and with Influenza A virus [15] was Active. The AUClast turned out to be 0.724 µM·h in data set [5], 0.93 µM·h in data set [7] and 0.785 µM·h in [11]. For the same compound, the Drug metabolism entry in data set [13] is recorded as “Metabolite_Detected”. Further, the Ctau in data set [14] was more than 16 nM.
